The values that follow come from US9896445B2, “Heterocyclic inhibitors of ERK1 and ERK2 and their use in the treatment of cancer” (Asana Biosciences, LLC, priority 2015, dated 2018).

A value given as a limit tells only on which side of the number the result lay.

In one experiment the target is T1, ERK1 (Homo sapiens, UniProt P27361).
T1 construct: purchased Jubilant Biosys
The experiment in a line: ERK1 HTRF (biochemical) assay. The following applies: HTRF. The protocol:
ERK1 and ERK2 HTRF (Biochemical) Assays
These assays employed a homogeneous time resolved fluorescence (HTRF) technique. […] The plate was incubated at room temperature for 60 min with shaking. […] The IC50 values (half maximal inhibitory concentration values) were subsequently determined using a sigmoidal dose-response curve (variable slope) in GraphPad Prism® 5 software.
In general terms: Time-resolved FRET reads energy transfer from a long-lived donor to a nearby acceptor.

A further experiment deals with T2, ERK2 (Homo sapiens, UniProt P28482).
T2 construct: purchased Jubilant Biosys
The experiment in a line: ERK2 HTRF (biochemical) assay. The following applies: HTRF. The gist of the method: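 Readout was time-resolved FRET between europium anti-phospho-MBP and streptavidin-APC after a 60-min room-temperature kinase step. That step used ERK2 (25 nM in enzyme mix), biotinylated MBP peptide (1 uM) and ATP (24 uM) from the substrate mix, in pH 7.5 Tris buffer.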

T2 sequence (P28482 whole entry): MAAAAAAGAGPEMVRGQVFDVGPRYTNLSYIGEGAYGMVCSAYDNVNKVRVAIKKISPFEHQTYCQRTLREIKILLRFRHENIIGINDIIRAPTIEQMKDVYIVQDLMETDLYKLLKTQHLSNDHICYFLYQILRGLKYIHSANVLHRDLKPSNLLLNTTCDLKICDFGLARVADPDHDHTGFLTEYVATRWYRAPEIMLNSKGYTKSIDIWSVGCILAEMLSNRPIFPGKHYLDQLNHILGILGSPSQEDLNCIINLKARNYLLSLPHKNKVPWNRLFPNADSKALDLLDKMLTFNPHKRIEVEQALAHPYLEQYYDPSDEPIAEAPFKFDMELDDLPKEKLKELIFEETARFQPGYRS
T1 sequence (P27361 whole entry): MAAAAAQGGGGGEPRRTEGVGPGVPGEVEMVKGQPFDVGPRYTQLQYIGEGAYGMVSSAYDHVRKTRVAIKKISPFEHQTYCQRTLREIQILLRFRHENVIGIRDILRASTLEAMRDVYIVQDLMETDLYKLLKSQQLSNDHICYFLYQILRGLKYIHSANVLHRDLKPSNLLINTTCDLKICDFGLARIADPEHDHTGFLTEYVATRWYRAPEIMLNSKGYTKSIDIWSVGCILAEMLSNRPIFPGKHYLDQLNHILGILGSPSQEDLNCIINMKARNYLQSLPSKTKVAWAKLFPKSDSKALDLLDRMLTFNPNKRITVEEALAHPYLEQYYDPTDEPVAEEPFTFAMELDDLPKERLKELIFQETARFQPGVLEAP

What is called IC50 is the concentration needed to halve the response being measured. A lower IC50 goes with greater potency in that assay. `Cc1cn(-c2nc(Nc3ccc(F)cc3)ncc2C)cc1C(=O)NC(CO)c1ccccc1` (stereo not shown) [Compound 108, 1-(2-((4-fluoro-phenyl)amino)-5-methylpyrimidin-4-yl)-N-(2-hydroxy-1-phenylethyl)-4-methyl-1H-pyrrole-3-carboxamide]: the IC50 against ERK1 is < 0.05 µM; at ERK2, ≤ 0.05 µM.
The matching figures for `CC[C@@H](CO)Nc1cc(-n2ccc(C(=O)NC(CO)c3cccc(Cl)c3)c2)ccn1` (stereo partly drawn) [Compound 109, N-(1-(3-chloro-phenyl)-2-hydroxy-ethyl)-1-(2-(((S)-1-hydroxybutan-2-yl)amino)pyridin-4-yl)-1H-pyrrole-3-carboxamide]: < 0.05 µM and ≤ 0.05 µM.
The like results for `Cc1cn(-c2ccnc(Nc3ccc(F)cc3)n2)cc1C(=O)NC(CO)c1cccc(Cl)c1` (stereo not shown) [Compound 110, N-(1-(3-chloro-phenyl)-2-hydroxyethyl)-1-(2-((4-fluorophenyl)-amino)pyrimidin-4-yl)-4-methyl-1H-pyrrole-3-carboxamide] were, in that order, 0.05 to 0.1 µM and ≤ 0.05 µM.
The like results for `O=C(NC(CO)c1cccc(Cl)c1)c1ccn(-c2ccnc(Nc3ccc(F)cc3Cl)n2)c1` (stereo not shown) [Compound 111, 1-(2-((2-chloro-4-fluorophenyl)amino)pyrimidin-4-yl)-N-(1-(3-chlorophenyl)-2-hydroxyethyl)-1H-pyrrole-3-carboxamide] were, in that order, 0.05 to 0.1 µM and ≤ 0.05 µM.
As for `O=C(N[C@H](CO)c1cccc(Cl)c1)c1ccn(-c2ccnc(Nc3ccc(F)cc3Cl)n2)c1` [Compound 112, (S)-1-(2-((2-chloro-4-fluorophenyl)-amino)pyrimidin-4-yl)-N-(1-(3-chlorophenyl)-2-hydroxyethyl)-1H-pyrrole-3-carboxamide], the IC50 is < 0.05 µM against ERK1 and ≤ 0.05 µM on ERK2.
On to `Cc1cnc(Nc2ccc(F)cc2)nc1-n1ccc(C(=O)NC(CO)c2cccc(Cl)c2)c1` (stereo not shown) [Compound 113, N-(1-(3-chloro-phenyl)-2-hydroxy-ethyl)-1-(2-((4-fluorophenyl)amino)-5-methyl-pyrimidin-4-yl)-1H-pyrrole-3-carboxamide], for which the IC50 was 0.05 to 0.1 µM against ERK1 and ≤ 0.05 µM against ERK2.
The matching figures for `Cc1cnc(Nc2ccc(F)cc2)nc1-n1ccc(C(=O)NC(CO)c2ccccc2)c1` (stereo not shown) [Compound 114, 1-(2-((4-fluoro-phenyl)amino)-5-methylpyrimidin-4-yl)-N-(2-hydroxy-1-phenylethyl)-1H-pyrrole-3-carboxamide]: < 0.05 µM and ≤ 0.05 µM.
For `Cc1cnc(NC2CC2)nc1-n1ccc(C(=O)NC(CO)c2cccc(Cl)c2)c1` (stereo not shown) [Compound 115, N-(1-(3-chloro-phenyl)-2-hydroxy-ethyl)-1-(2-(cyclopropylamino)-5-methylpyrimidin-4-yl)-1H-pyrrole-3-carboxamide], the IC50 against ERK1 was < 0.05 µM; against ERK2, ≤ 0.05 µM.
The matching figures for `O=C(N[C@H](CO)c1cccc(Cl)c1)c1cn(-c2ccnc(NC3CC3)c2)cn1` [Compound 116, (S)-N-(1-(3-chlorophenyl)-2-hydroxyethyl)-1-(2-(cyclopropylamino)pyridin-4-yl)-1H-imidazole-4-carboxamide]: < 0.05 µM and ≤ 0.05 µM.
The like results for `Cc1cnc(NC(C)c2ccccc2)nc1-n1ccc(C(=O)NC(CO)c2ccccc2)c1` (stereo not shown) [Compound 117, N-(2-hydroxy-1-phenylethyl)-1-(5-methyl-2-((1-phenylethyl)amino)pyrimidin-4-yl)-1H-pyrrole-3-carboxamide] were, in that order, 0.1 to 0.5 µM and 0.05 to 0.1 µM.
As to `Cc1cnc(Nc2ccc(F)cc2)nc1-n1cnc(C(=O)NC(CO)c2ccccc2)c1` (stereo not shown) [Compound 118, 1-(2-((4-fluoro-phenyl)amino)-5-methylpyrimidin-4-yl)-N-(2-hydroxy-1-phenylethyl)-1H-imidazole-4-carboxamide], the IC50 against ERK1 was 0.05 to 0.1 µM; against ERK2 it was ≤ 0.05 µM.
Take `COc1cc(Nc2ncc(C)c(-n3ccc(C(=O)NC(CO)c4ccccc4)c3)n2)cc(OC)c1OC` (stereo not shown) [Compound 121, N-(2-hydroxy-1-phenylethyl)-1-(5-methyl-2-((3,4,5-trimethoxyphenyl)amino)pyrimidin-4-yl)-1H-pyrrole-3-carboxamide]: the results for the IC50 against ERK1 and on ERK2 were < 0.05 µM and ≤ 0.05 µM, respectively.
The like results for `Cc1cnc(NC2CCOC2)nc1-n1ccc(C(=O)NC(CO)c2cccc(Cl)c2)c1` (stereo not shown) [Compound 123, N-(1-(3-chlorophenyl)-2-hydroxyethyl)-1-(5-methyl-2-((tetrahydrofuran-3-yl)amino)pyrimidin-4-yl)-1H-pyrrole-3-carboxamide] were, in that order, < 0.05 µM and ≤ 0.05 µM.
The like results for `O=C(NC(CO)c1cccc(Cl)c1)c1ccn(-c2cc(Nc3ccccc3)ncc2Cl)c1` (stereo not shown) [Compound 124, 1-(5-chloro-2-(phenylamino)pyridin-4-yl)-N-(1-(3-chlorophenyl)-2-hydroxyethyl)-1H-pyrrole-3-carboxamide] were, in that order, < 0.05 µM and ≤ 0.05 µM.
The like results for `Cc1cnc(Nc2ccc(F)cc2)nc1-n1ccc(C(=O)N[C@H](CO)c2ccc(F)c(Cl)c2)c1` [Compound 125, (S)-N-(1-(3-chloro-4-fluorophenyl)-2-hydroxyethyl)-1-(2-((4-fluorophenyl)-amino)-5-methyl-pyrimidin-4-yl)-1H-pyrrole-3-carboxamide] were, in that order, < 0.05 µM and ≤ 0.05 µM.
Regarding `COc1cc(Nc2ncc(C)c(-n3ccc(C(=O)N[C@H](CO)c4ccc(F)c(Cl)c4)c3)n2)cc(OC)c1OC` [Compound 126, (S)-N-(1-(3-chloro-4-fluorophenyl)-2-hydroxyethyl)-1-(5-methyl-2-((3,4,5-trimethoxyphenyl)amino)pyrimidin-4-yl)-1H-pyrrole-3-carboxamide], the IC50 is < 0.05 µM at ERK1 and ≤ 0.05 µM against ERK2.
The matching figures for `CCC(COC)Nc1ncc(C)c(-n2ccc(C(=O)NC(CO)c3cccc(Cl)c3)c2)n1` (stereo not shown) [Compound 127, N-(1-(3-chloro-phenyl)-2-hydroxy-ethyl)-1-(2-((1-methoxybutan-2-yl)amino)-5-methylpyrimidin-4-yl)-1H-pyrrole-3-carboxamide]: < 0.05 µM and ≤ 0.05 µM.
For `Cc1cnc(NC2CCOC2)nc1-n1ccc(C(=O)NC(CO)c2ccccc2)c1` (stereo not shown) [Compound 128, N-(2-hydroxy-1-phenylethyl)-1-(5-methyl-2-((tetrahydrofuran-3-yl)amino)pyrimidin-4-yl)-1H-pyrrole-3-carboxamide], the results for the IC50 on ERK1 and on ERK2 were < 0.05 µM and ≤ 0.05 µM, respectively.
For `COc1cnc(Nc2ccc(F)cc2Cl)nc1-n1ccc(C(=O)NC(CO)c2ccccc2)c1` (stereo not shown) [Compound 129, 1-(2-((2-chloro-4-fluorophenyl)amino)-5-methoxy-pyrimidin-4-yl)-N-(2-hydroxy-1-phenylethyl)-1H-pyrrole-3-carboxamide], the values for the IC50 on ERK1 and against ERK2 were < 0.05 µM and ≤ 0.05 µM, respectively.
The matching figures for `CCNc1ncc(C)c(-n2ccc(C(=O)NC(CO)c3ccccc3)c2)n1` (stereo not shown) [Compound 130, 1-(2-(ethylamino)-5-methylpyrimidin-4-yl)-N-(2-hydroxy-1-phenylethyl)-1H-pyrrole-3-carboxamide]: 0.1 to 0.5 µM and 0.1 to 0.5 µM.
With `Cc1cnc(Nc2ccc3c(c2)OCCO3)nc1-n1ccc(C(=O)NC(CO)c2ccccc2)c1` (stereo not shown) [Compound 131, 1-(2-((2,3-dihydrobenzo[b] [1,4]dioxin-6-yl)-amino)-5-methyl-pyrimidin-4-yl)-N-(2-hydroxy-1-phenylethyl)-1H-pyrrole-3-carboxamide], the values for the IC50 against ERK1 and against ERK2 were < 0.05 µM and ≤ 0.05 µM, respectively.
For the molecule `Cc1cnc(Nc2ccc3occc3c2)nc1-n1cnc(C(=O)NC(CO)c2cccc(Cl)c2)c1` (stereo not shown) [Compound 132, 1-(2-(benzofuran-5-ylamino)-5-methylpyrimidin-4-yl)-N-(1-(3-chlorophenyl)-2-hydroxyethyl)-1H-imidazole-4-carboxamide], the IC50 at ERK1 was < 0.05 µM; at ERK2 it was ≤ 0.05 µM.
Take `CC[C@@H](CO)Nc1ncc(C)c(-n2ccc(C(=O)N[C@H](CO)c3ccc(F)c(Cl)c3)c2)n1` [Compound 133, N-((S)-1-(3-chloro-4-fluorophenyl)-2-hydroxyethyl)-1-(2-(((S)-1-hydroxy-butan-2-yl)amino)-5-methylpyrimidin-4-yl)-1H-pyrrole-3-carboxamide]: the IC50 against ERK1 was < 0.05 µM; against ERK2, ≤ 0.05 µM.
The like results for `CC(=O)NCC(NC(=O)c1ccn(-c2cc(Nc3ccc(F)cc3)ncc2C)c1)c1ccccc1` (stereo not shown) [Compound 135, N-(2-acetamido-1-phenylethyl)-1-(2-((4-fluorophenyl)-amino)-5-methyl-pyridin-4-yl)-1H-pyrrole-3-carboxamide] were, in that order, < 0.05 µM and ≤ 0.05 µM.
The matching figures for `Cc1cnc(Nc2ccc3c(c2)OC(F)(F)O3)nc1-n1ccc(C(=O)NC(CN)c2cccc(Cl)c2)c1` (stereo not shown) [Compound 136, N-(2-amino-1-(3-chlorophenyl)ethyl)-1-(2-((2,2-difluorobenzo[d][1,3]dioxol-5-yl)amino)-5-methylpyrimidin-4-yl)-1H-pyrrole-3-carboxamide]: 0.05 to 0.1 µM and ≤ 0.05 µM.
The like results for `Cc1cnc(Nc2ccc3c(c2)CCO3)nc1-n1ccc(C(=O)NC(CO)c2cccc(Cl)c2)c1` (stereo not shown) [Compound 137, N-(1-(3-chloro-phenyl)-2-hydroxyethyl)-1-(2-((2,3-dihydro-benzofuran-5-yl)-mino)-5-methyl-pyrimidin-4-yl)-1H-pyrrole-3-carboxamide] were, in that order, < 0.05 µM and ≤ 0.05 µM.
